Reference: patent US20080312301A1, “Substituted N-Benzo[D]Isoxazol-3-Yl-Amine Compounds as Inhibitors of Mglur5, Serotonin (5-Ht) and Noradrenaline Receptors, and Uses Thereof” (Gruenenthal GmbH, priority 2005, published 2008)

Target: T1, NA transporter (Rattus norvegicus, UniProt Q63380)
T1 construct: from tissue; host or cells: rat hypothalamus synaptosomes (P2 fraction)
Assay: Noradrenaline (NA) uptake inhibition in rat brain synaptosomes (hypothalamus), [3H]-NA
Assay type: biochemical
Conditions: for inhibition at 10 µM: conc. 10 μM
From the text: I. Method for Determining the Noradrenaline and 5HT Uptake Inhibition:
For in vitro studies, synaptosomes were freshly isolated from rat brain areas as described in the publication “The isolation of nerve endings from brain” by E. G. Gray and V. P. Whittaker, J. Anatomy 96, pages 79-88, 1962. The corresponding literature description is introduced hereby as reference and forms part of the disclosure.
The tissue (hypothalamus for determining the noradrenaline uptake inhibition and medulla and pons for determining the 5HT uptake inhibition) was homogenized in ice-cold 0.32 M sucrose (100 mg of tissue/1 ml) in a glass homogenizer with Teflon pestle using five full up and down strokes at 840 revolutions/minute. The homogenate was centrifuged at 1000 g and at 4° C. for 10 minutes. After subsequent centrifugation at 17 000 g for 55 minutes, the synaptosomes (P2 fraction) are obtained and were resuspended in 0.32 M […] (0.5 ml/100 mg of the original weight).
The respective uptake was measured in a 96-well microtiter plate. The volume was 250 μl and incubation took place at room temperature (approx. 20-25° C.) under an O2 atmosphere.
The incubation time was 7.5 minutes for [^3H]-NA and 5 minutes for [^3H]-5-HT. The 96 samples were then filtered through a Unifilter GF/B® microtiter plate (Packard) and washed with […] of incubated buffer using a “Brabdel MPXRI-96T Cell Harvester”. The Unifilter GF/B plate was dried at 55° C. for 1 h. The plate was then sealed with a Back Seal® (Packard) and 35 μl of scintillation fluid were added per well (Ultima Gold®, Packard). After sealing with a top Seal® (Packard), the radioactivity was determined, after equilibrium had been reached (about 5 h), in a “Trilux 1450 Microbeta” (Wallac).
The following characteristic data were found for the NA transporter:
The amount of protein employed in the above determination corresponded to the value disclosed in the literature, as described for example in “Protein measurement with the folin phenol reagent”, Lowry et al., J. Biol. Chem., 193, 265-275, 1951. A detailed description of the method can also be found in the literature, for example from M. Ch. Frink, H.-H. Hennies, W. Engelberger, M. Haurand and B. Wilffert (1996) Arzneim.-Forsch./Drug Res. 46 (III), 11, 1029-1036. The corresponding literature descriptions are hereby introduced as reference and form part of the disclosure.

T1 sequence (Q63380 1-617): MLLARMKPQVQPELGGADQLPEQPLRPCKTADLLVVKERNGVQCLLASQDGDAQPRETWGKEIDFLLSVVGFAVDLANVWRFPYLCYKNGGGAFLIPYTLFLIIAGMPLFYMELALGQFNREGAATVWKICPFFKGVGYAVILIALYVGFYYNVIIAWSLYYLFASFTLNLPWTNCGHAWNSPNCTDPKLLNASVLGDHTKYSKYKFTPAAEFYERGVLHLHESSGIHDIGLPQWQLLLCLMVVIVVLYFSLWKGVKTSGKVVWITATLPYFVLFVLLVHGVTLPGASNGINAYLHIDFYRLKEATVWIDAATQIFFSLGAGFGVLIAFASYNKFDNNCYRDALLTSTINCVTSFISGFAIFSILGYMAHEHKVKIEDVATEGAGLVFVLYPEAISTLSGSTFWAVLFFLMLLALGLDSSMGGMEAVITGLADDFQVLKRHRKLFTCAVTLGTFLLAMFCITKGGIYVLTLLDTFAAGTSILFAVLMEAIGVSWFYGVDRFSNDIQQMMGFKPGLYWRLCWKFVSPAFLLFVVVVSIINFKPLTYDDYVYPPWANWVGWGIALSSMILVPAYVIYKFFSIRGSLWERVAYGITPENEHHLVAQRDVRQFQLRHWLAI

SMILES | NA uptake inhibition [%] conc. 10 μM [%] | inhibition at 10 µM [%]
Nc1cccc2onc(NC(=O)c3cccc4ccccc34)c12 [Example 11, naphthalene-1-(4-aminobenzo[d]isoxazol-3-yl)carboxamide] | 71 | –
O=C(Nc1noc2cccc(F)c12)c1cc2ccccc2s1 [Example 12, benzo[b]thiophene-2-(4-fluorobenzo[d]isoxazol-3-yl)carboxamide] | 60 | –
O=C(Nc1noc2cc(Cl)ccc12)c1ccc(I)cc1 [Example 40, N-(6-chlorobenzo[d]isoxazol-3-yl)-4-iodobenzamide] | – | 61
O=C(Nc1noc2cc(Cl)ccc12)c1ccc2ccccc2c1 [Example 41, naphthalene-2-(6-chlorobenzo[d]isoxazol-3-yl)carboxamide] | 61 | –
O=C(Nc1noc2cc(Cl)ccc12)c1ccc(F)c(F)c1 [Example 42, N-(6-chlorobenzo[d]isoxazol-3-yl)-3,4-difluorobenzamide] | – | 64
O=C(Nc1noc2cc(Br)ccc12)c1ccc(F)cc1C(F)(F)F [Example 43, N-(6-bromobenzo[d]isoxazol-3-yl)-4-fluoro-2-trifluoromethylbenzamide] | – | 66
O=C(Nc1noc2cc(Br)ccc12)c1cc(F)c(Cl)cc1Cl [Example 44, 2,4-dichloro-N-(6-bromobenzo[d]isoxazol-3-yl)-5-fluorobenzamide] | – | 61
O=C(Nc1noc2cc(Br)ccc12)c1ccc(C(F)(F)F)c(F)c1 [Example 45, N-(6-bromobenzo[d]isoxazol-3-yl)-3-fluoro-4-trifluoromethylbenzamide] | – | 64
O=C(Nc1noc2cc(Br)ccc12)c1cc(F)cc(C(F)(F)F)c1 [Example 46, N-(6-bromobenzo[d]isoxazol-3-yl)-3-fluoro-5-trifluoromethylbenzamide] | – | 65
O=C(Nc1noc2cc(Br)ccc12)c1ccc(F)c(F)c1F [Example 47, N-(6-bromobenzo[d]isoxazol-3-yl)-2,3,4-trifluorobenzamide] | – | 66
CCCc1ccc(C(=O)Nc2noc3cc(Br)ccc23)cc1 [Example 48, N-(6-bromobenzo[d]isoxazol-3-yl)-4-propylbenzamide] | – | 61
O=C(Nc1noc2ccc(Br)cc12)c1ccco1 [Example 50, furan-2-(5-bromobenzo[d]isoxazol-3-yl)carboxamide] | 66 | –
O=C(Nc1noc2c(F)ccc(F)c12)c1ccccc1C(F)(F)F [Example 51, 7-fluoro-N-(4-fluorobenzo[d]isoxazol-3-yl)-2-trifluoromethylbenzamide] | – | 71
O=C(Nc1noc2c(F)cccc12)c1cc(F)c(Cl)cc1Cl [Example 52, 2,4-dichloro-5-fluoro-N-(7-fluorobenzo[d]isoxazol-3-yl)benzamide] | – | 70
O=C(Nc1noc2c(F)cccc12)c1ccc(C(F)(F)F)c(F)c1 [Example 53, 3-fluoro-N-(7-fluorobenzo[d]isoxazol-3-yl)-4-trifluoromethylbenzamide] | – | 69
O=C(Nc1noc2c(F)cccc12)c1ccc(F)c(F)c1F [Example 54, 2,3,4-trifluoro-N-(7-fluorobenzo[d]isoxazol-3-yl)benzamide] | – | 63
O=C(Nc1noc2c(F)cccc12)c1ccc(I)cc1 [Example 55, N-(7-fluorobenzo[d]isoxazol-3-yl)-4-iodobenzamide] | – | 69
O=C(Nc1noc2c(F)cccc12)c1cccnc1Cl [Example 56, 2-chloro-N-(7-fluorobenzo[d]isoxazol-3-yl)nicotinamide] | – | 72
O=C(Nc1noc2c(F)cccc12)c1ccc2ccccc2c1 [Example 57, naphthalene-2-(7-fluorobenzo[d]isoxazol-3-yl)carboxamide] | 67 | –
CCCc1ccc(C(=O)Nc2noc3cccc(F)c23)cc1 [Example 58, N-(74-fluorobenzo[d]isoxazol-3-yl)-4-propylbenzamide] | 64 | –
O=C(Nc1noc2c(F)cccc12)c1ccc(F)c(F)c1 [Example 59, 3,4-difluoro-N-(7-fluorobenzo[d]isoxazol-3-yl)benzamide] | – | 67

SMILES | NA uptake inhibition [%] conc. 10 μM [%] | inhibition at 10 µM [%]
O=C(Nc1noc2c(F)cccc12)c1cccc(C(F)(F)F)c1F [Example 60, 2-fluoro-N-(7-fluorobenzo[d]isoxazol-3-yl)-3-trifluoromethylbenzamide] | – | 66
COc1cccc(C(=O)Nc2noc3c(F)cccc23)c1 [Example 61, N-(7-fluorobenzo[d]isoxazol-3-yl)-3-methoxybenzamide] | – | 66
O=C(Nc1noc2c(F)cccc12)C(c1ccccc1)c1ccccc1 [Example 62, N-(7-fluorobenzo[d]isoxazol-3-yl)-2,2-diphenylacetamide] | – | 63
O=C(Nc1noc2c(F)cccc12)c1ccco1 [Example 63, furan-2-(7-fluorobenzo[d]isoxazol-3-yl)carboxamide] | 64 | –
CN(C)c1cccc2onc(NC(=O)c3cc(F)c(Cl)cc3Cl)c12 [Example 64, 2,4-dichloro-N-(4-dimethylaminobenzo[d]isoxazol-3-yl)-5-fluorobenzamide] | – | 63
CN(C)c1cccc2onc(NC(=O)c3ccc(F)c(F)c3F)c12 [Example 65, N-(4-dimethylaminobenzo[d]isoxazol-3-yl)-2,3,4-trifluorobenzamide] | – | 68
CN(C)c1cccc2onc(NC(=O)c3cccnc3Cl)c12 [Example 66, 2-chloro-N-(4-dimethylaminobenzo[d]isoxazol-3-yl)nicotinamide] | – | 64
CN(C)c1cccc2onc(NC(=O)c3ccc4ccccc4c3)c12 [Example 67, naphthalene-2-(4-dimethylaminobenzo[d]isoxazol-3-yl)carboxamide] | 73 | –
CCCc1ccc(C(=O)Nc2noc3cccc(N(C)C)c23)cc1 [Example 68, N-(4-dimethylaminobenzo[d]isoxazol-3-yl)-4-propylbenzamide] | – | 73
CN(C)c1cccc2onc(NC(=O)c3ccc(F)c(F)c3)c12 [Example 69, N-(4-dimethylaminobenzo[d]isoxazol-3-yl)-3,4-difluorobenzamide] | – | 67
CN(C)c1cccc2onc(NC(=O)c3cccc(C(F)(F)F)c3F)c12 [Example 70, N-(4-dimethylaminobenzo[d]isoxazol-3-yl)-2-fluoro-3-trifluoromethylbenzamide] | – | 66
COc1cccc(C(=O)Nc2noc3cccc(N(C)C)c23)c1 [Example 71, N-(4-dimethylaminobenzo[d]isoxazol-3-yl)-3-methoxybenzamide] | – | 65
CN(C)c1cccc2onc(NC(=O)C(C)(C)C)c12 [Example 72, N-(4-dimethylaminobenzo[d]isoxazol-3-yl)-2,2-dimethylpropionamide] | – | 66
CN(C)c1cccc2onc(NC(=O)C(c3ccccc3)c3ccccc3)c12 [Example 74, N-(4-dimethylaminobenzo[d]isoxazol-3-yl)-2,2-diphenylacetamide] | – | 70
CN(C)c1cccc2onc(NC(=O)C(F)(F)C(F)(F)C(F)(F)F)c12 [Example 76, N-(4-dimethylaminobenzo[d]isoxazol-3-yl)-2,2,3,3,4,4,4-heptafluorobutyramide] | – | 67
O=C(Nc1noc2cccc(OCC(F)(F)F)c12)c1cc(F)c(Cl)cc1Cl [Example 78, 2,4-dichloro-5-fluoro-N-[4-(2,2,2-trifluoroethoxy)benzo[d]isoxazol-3-yl]benzamide] | – | 66
O=C(Nc1noc2cccc(OCC(F)(F)F)c12)c1ccc(C(F)(F)F)c(F)c1 [Example 79, 3-fluoro-N-[4-(2,2,2-trifluoroethoxy)benzo[d]isoxazol-3-yl]-4-trifluoromethyl-benzamide] | – | 62
O=C(Nc1noc2cccc(OCC(F)(F)F)c12)c1ccc(F)c(F)c1F [Example 80, 2,3,4-trifluoro-N-[4-(2,2,2-trifluoroethoxy)benzo[d]isoxazol-3-yl]benzamide] | – | 66
O=C(Nc1noc2cccc(OCC(F)(F)F)c12)c1ccc2ccccc2c1 [Example 81, naphthalene-2-[4-(2,2,2-trifluoroethoxy)benzo[d]isoxazol-3-yl]carboxamide] | 65 | –
O=C(Nc1noc2cccc(OCC(F)(F)F)c12)c1cccc(C(F)(F)F)c1F [Example 83, 2-fluoro-N-[4-(2,2,2-trifluoroethoxy)benzo[d]isoxazol-3-yl]-3-trifluoromethyl-benzamide] | – | 65
